For orientation: inhibition means the relative decrease from the control value, in per cent. The term solubility (kinetic) denotes solubility judged after dilution from a stock solution rather than from solid. For orientation: IC50 means the concentration needed to halve the response being measured.

Data set [1] deals with RAD51 foci formation in BxPC-3 cells. Nature of the data set: RAD51 foci immunofluorescence after cisplatin. Format: cell-based, human.
For data set [2], the system named is homologous recombination in BxPC-3 cells. Nature of the data set: HR Quick Assay (HR-QA). The data set is classed as cell-based. Particulars: Homo sapiens.
In another data set the test system is BxPC-3 cells. Nature of the data set: cell viability (CellTiter-Glo), combination with olaparib, Interaction Index. The data set is classed as cell-based, human. The settings on record: for Combination studies with olaparib: combination effect: BxPC-3 cells.
Another data set is described as follows: kinetic solubility. Format: physicochemical. The settings on record: PBS, aqueous buffer, kinetic from dmso stock.
The subject of data set [3] is normal pancreatic epithelial H-6037 cells. Nature of the data set: cell viability, combination with olaparib. Format: cell-based, human. Particulars: 19/ola combination, 6-day.
Data set [4] concerns homologous recombination in HEK-293 cells. As to the kind of experiment: m-Clover Lamin A assay (mCl-HR). The data set is classed as cell-based, human.
The next data set relates to γ-H2AX in BxPC-3 cells. Nature of the data set: γ-H2AX immunofluorescence. Format: cell-based, human. The settings on record: BxPC-3, 72 h, 19 + ola combination.
For a further data set, the system named is BxPC-3 3D spheroids. Nature of the data set: 3D spheroids cell viability (MTT) and volume. Format: cell-based, human. Particulars: BxPC-3 spheroids, 60 μM compound alone.

≈ marks a conversion by molar mass, not a printed value.

Description for BxPC-3 3D spheroids: multiwell plates, grown for 96 h to allow spheroids formation and treated for 144 h as previously indicated.
Brightfield imaging of 3D spheroids was performed
at 0, 48, 96 and 144 h treatment timings to determine spheroid volume change.

`N.N.[Cl][Pt][Cl]` [CPL, cisplatin, reference compound] returned an RAD51-labelled nuclei in data set [1] (BxPC-3, CPL alone (50 μM cisplatin)) of 56%.
Turning to `Cc1ccc2nc(-c3ccc(-c4ccccc4C(=O)O)o3)cc(C(=O)O)c2c1` [Compound 1], the inhibition at 100 µM in data set [2] (BXPC-3, at 100 μM) was determined as 4%. For the same compound, the inhibition at 50 µM in data set [2] (BXPC-3, maximum inhibition, at 50 μM) worked out at 35%. Further, in the data set on BxPC-3 cells (144 h), the “Combination studies with olaparib: combination effect” value (shortened to “Combination studies with olaparib”) was “additive (a result ranging from 0.8 to 1.2 denotes an additive effect)”. In addition, the solubility (kinetic) in the data set “kinetic solubility” came out at 234 ± 9 µM (≈ 87.4 µg/mL).
`Cc1ccc2nc(-c3ccc(-c4ccccc4)o3)cc(C(=O)O)c2c1` [Compound 4]: the inhibition at 80 µM in data set [2] (BXPC-3, maximum inhibition) amounted to 63%. Moreover, the “Combination studies with olaparib” value in the data set on BxPC-3 cells (144 h) is recorded as “additive (a result ranging from 0.8 to 1.2 denotes an additive effect)”.
Consider `Cc1ccc2nc(-c3ccc(-c4ccccc4F)o3)cc(C(=O)O)c2c1` [Compound 8], for which, in data set [2] (BXPC-3, maximum inhibition, at 60 μM), the inhibition at 60 µM is 39%.
For `CCc1ccc2nc(-c3ccc(-c4ccccc4)o3)cc(C(=O)O)c2c1` [Compound 16], in data set [2] (BXPC-3, maximum inhibition), the inhibition at 80 µM came out at 76%. Besides, the cell viability reduction in the data set on BxPC-3 cells (BxPC-3, compound alone at 40 µM) came out at 40%. In addition, the “Combination studies with olaparib” value in the data set on BxPC-3 cells (144 h) is given as “additive (a result ranging from 0.8 to 1.2 denotes an additive effect)”.
Consider `Nc1ccc2nc(-c3ccc(-c4ccccc4)o3)cc(C(=O)O)c2c1` [Compound 17], for which the inhibition at 20 µM in data set [2] (BXPC-3, maximum inhibition) was 77%. The “Combination studies with olaparib” value with BxPC-3 cells (144 h) was “additive (a result ranging from 0.8 to 1.2 denotes an additive effect)”.
With `O=C(O)c1cc(-c2ccc(-c3ccccc3)o2)nc2ccc(O)cc12` [Compound 18], in data set [2] (BXPC-3, maximum inhibition), the inhibition at 20 µM was at most 60%.
Take `COc1ccc2nc(-c3ccc(-c4ccccc4)o3)cc(C(=O)O)c2c1` [Compound 19]: the inhibition at 80 µM in data set [2] (BXPC-3, maximum inhibition) is 81%. In addition, the IC50 in data set [2] (multiple-dose HR-QA) was found to be 21.7 ± 1.81 µM. Moreover, the “Combination w/ola in BxPC-3 cells” value in the data set with BxPC-3 cells (BxPC-3, Table S2) is listed as “Synergism”. Further, the “effect on cell viability of normal cells” value in data set [3] is listed as “no significant effect”. The solubility (kinetic) in the data set “kinetic solubility” is above 250 µM. In addition, the mClover-positive cells in data set [4] (HEK-293, 40 μM) is listed as around 4%. For the same compound, the inhibition at 40 µM in data set [4] (Homo sapiens, HEK293, HEK-293, 40 μM) was around 74%. Also, in data set [1] (BxPC-3, 19 and CPL (50 μM cisplatin)), the RAD51-labelled nuclei was 22%. Besides, the γ-H2AX-labelled nuclei in the data set with γ-H2AX in BxPC-3 cells is given as above 40%. For the same compound, in the data set on BxPC-3 3D spheroids, the “impact on spheroid volume” value is “no significant impact”.
`Cc1ccc2nc(-c3ccc(-c4ccccc4)s3)cc(C(=O)O)c2c1` [Compound 20]: the inhibition at 20 µM in data set [2] (BXPC-3, maximum inhibition) amounted to 89%. For the same compound, the cell viability reduction result in the data set with BxPC-3 cells (BxPC-3, 5 µM compound in combination with olaparib, 144 h) is “≈ 40%”. Also, the “Combination studies with olaparib” value in the data set with BxPC-3 cells (144 h) is “additive (a result ranging from 0.8 to 1.2 denotes an additive effect)”.
